Tested on: not listed separately
Experiment: Partition coefficient (logD7.4)
Settings: octanol/water, pH 7.4

Row | logD | SMILES
1 | 5.14 | O=C(NN1CCCCC1)c1cc(-c2ccc(Cl)cc2)n(-c2ccc(Cl)cc2Cl)n1

Biological target: Cannabinoid receptor 1 (Rattus norvegicus, UniProt P20272)
Settings: not given

Cannabinoid receptor 1, sequence (P20272 whole entry): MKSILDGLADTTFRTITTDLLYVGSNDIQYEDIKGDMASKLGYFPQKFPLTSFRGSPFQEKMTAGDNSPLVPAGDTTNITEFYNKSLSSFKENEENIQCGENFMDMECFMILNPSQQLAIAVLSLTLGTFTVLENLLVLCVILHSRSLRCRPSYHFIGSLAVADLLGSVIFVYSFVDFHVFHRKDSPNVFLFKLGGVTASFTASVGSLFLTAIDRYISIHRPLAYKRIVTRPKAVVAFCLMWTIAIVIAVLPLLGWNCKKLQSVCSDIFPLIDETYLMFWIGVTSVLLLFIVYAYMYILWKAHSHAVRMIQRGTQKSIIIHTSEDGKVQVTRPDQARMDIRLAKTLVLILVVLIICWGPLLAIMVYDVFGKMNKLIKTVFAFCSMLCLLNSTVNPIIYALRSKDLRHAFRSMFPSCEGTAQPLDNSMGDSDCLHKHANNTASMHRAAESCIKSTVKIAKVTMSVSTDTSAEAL

Row | SMILES | Ki [nM]
2 | COc1ccc(-c2c(C)c(C(=O)NN3CCCCC3)nn2-c2ccccc2F)cc1 | 37.8
3 | COc1ccc(-c2c(F)c(C(=O)NN3CCCCC3)nn2-c2ccccc2Cl)cc1 | 18.2
4 | COc1ccc(-c2c(C)c(C(=O)NN3CCCCCC3)nn2-c2ccc(Cl)cc2Cl)cc1 | 7
5 | Cc1c(C(=O)NN2CCCCC2)nn(-c2ccc(Cl)cc2Cl)c1-c1ccc(OC2CCCN2C(=O)OC(C)(C)C)cc1 (centres undefined) | 390
6 | O=C(NN1CCCCC1)c1nn(-c2ccc(Cl)cc2Cl)c(-c2ccc(Cl)cc2)c1Br | 1.4
7 | COc1ccc(-c2c(C)c(C(=O)NN3CCCCC3)nn2-c2ccccc2OC)cc1 | 440

Further compounds by falling Ki, results first:

Row | Ki [nM] | SMILES
8 | 104 | Cc1c(C(=O)NN2CCCCC2)nn(-c2ccc(Cl)cc2Cl)c1-c1ccc(O)cc1
9 | 9 | O=C(NN1CCCCC1)c1cc(-c2ccc(Cl)cc2)n(-c2ccc(Cl)cc2Cl)n1
10 | 8 | COc1ccc(-c2c(C)c(C(=O)NN3CCCCC3)nn2-c2ccccc2Cl)cc1
11 | 7.1 | Cc1c(C(=O)NN2CCCCC2)nn(-c2ccc(Cl)cc2Cl)c1-c1ccc2c(c1)OCO2
12 | 6.2 | COc1ccc(-c2c(Br)c(C(=O)NN3CCCCC3)nn2-c2ccccc2Cl)cc1
13 | 5.2 | COc1ccc(-c2c(Br)c(C(=O)NN3CCCCCC3)nn2-c2ccc(Cl)cc2Cl)cc1
14 | 4.5 | Cc1c(C(=O)NN2CCOCC2)nn(-c2ccc(Cl)cc2Cl)c1-c1ccc(I)cc1

— ChEMBL document CHEMBL1144888, “Synthesis, structure-activity relationship, and evaluation of SR141716 analogues: development of central cannabinoid receptor ligands with lower lipophilicity” (J Med Chem, 2003)
